Earlier results on one compound are cited in patent US20130001095A1, “METHOD OF PRODUCING COUPLED RADICAL PRODUCTS” (priority 2009, published 2013).

With `O=C([O-])CCCC(=O)[O-].[Na+].[Na+]` [Sodium glutarate], the solubility in methanol entry (methanol) was “not soluble”. Also, the solubility in water entry (water) is “soluble”.
